The results in this text go back to article PMC6100073, “Activation of Anthracene Endoperoxides in Leishmania and Impairment of Mitochondrial Functions” (Molecules : A Journal of Synthetic Chemistry and Natural …, 2018).

One test concerns LtP. The test is described as follows: EPR spin trapping (DMPO): activation of AcEPs by LtP. Type of test: cell-based, Leishmania tarentolae. To be noted: 500 µM compound, 2 × 10^9 LtP/mL, 40 mM DMPO, 15 min, no added iron. How it is done:
To detect the radicals derived from AcEPs in LtP, EPR experiments were performed using DMPO as spin trap. Aliquots of the cell broth were transferred into Sarstedt tubes that were centrifuged (20 °C, 1800× g, 10 min), and the supernatants were discarded. Then the cell pellets were resuspended in PBS and centrifuged again. After removal of the supernatants, the cell pellets were resuspended in a mixture of PBS containing glucose (15 mM), giving a final cell number of 2 × 10^9 LtP/mL. Aliquots (150 µL) were incubated in 1.5 mL Eppendorf tubes with aeration holes. The cells were incubated with DMPO (40 mM) for 5 min at 26 °C, and after addition of 500 µM of the respective substance (Asc, AcEP1117, AcEP1118, AcEP1129, AcEP1130, Ac or AQ), the samples were incubated for additional 15 min at 26 °C under constant agitation (agitation speed: 0.3 s^−1). Control samples containing LtP, LtP and DMSO (1.27%, v/v), or PBS/glucose alone were incubated with 40 mM DMPO under the same conditions. Cell samples containing DMPO that were treated with Asc served as positive control. Samples treated with Ac or AQ were used as negative controls. Subsequently, 50 µL of the samples were aspirated into glass capillaries and transferred in the MD5 resonator of the EPR spectrometer. The samples were measured immediately using the following instrument settings: microwave frequency 9.684 GHz; microwave power 20 mW, modulation frequency 100 kHz; modulation amplitude 2 G; time constant 0.164 s; center field 3449 G; scan rate 71 G/min; sweep width 100 G; scan time 84 s; attenuation 8.93 × 10^5; and scans 3.

A further test relates to J774 macrophages. As to the kind of experiment: Resazurin viability assay in J774 macrophages. Type of test: cell-based. The note with it: Mus musculus, read-out: IC50 (µM) Mean ± SD J774. As for the experimental part:
The murine macrophage cell line J774A.1 (mouse, ATCC, TIB-67™) was cultivated in Dulbecco’s Modified Eagle Medium (DMEM) (high glucose, 1.5 g/L NaHCO3) supplemented with 25,000 IU/L penicillin, 25 mg/L streptomycin, and 10% FCS (heat-inactivated) in 50 mL TubeSpin bioreactors. The tubes were kept in an incubator at 37 °C and 5% CO2 on a roller culture apparatus (5 rpm). The cells were passaged twice a week, diluting them in a ratio of 1:10. The macrophages were used until passage 30. To determine the cell count, the cell suspension was resuspended and diluted 1:2 with PBS. After fixation of the cells by mixing the cell suspension 1:1 with a formaldehyde solution (2%, v/v), aliquots of the resulting suspension were transferred into a standard Neubauer chamber (VWR, Austria) and counted manually using a light microscope (Motic BA310, Austria) at a magnification of 400×.
LtP (2 × 10^6 cells/mL) in a mixture of YEM and PBS (1:1, v/v) containing 25,000 U/L penicillin, 25 mg/L streptomycin, and 6 µM hemin (YEM/PBS) were prepared. Aliquots of 200 µL of this suspension were distributed in 96-well plates. Control rows containing YEM/PBS (no activity) and with untreated LtP (100% activity) were also loaded on the plate. To the wells of third rows, compounds (leading to a final vehicle concentration of max. 2% dimethyl sulfoxide (DMSO) in the wells) were added. Subsequently, five 1:5 serial dilution steps were performed. The plates were incubated at 26 °C for 48 h. Following the incubation, 50 µL of a resazurin solution in PBS were added to each well, giving a final concentration of 20 µM. After 4 h of incubation, the fluorescence was measured at 560 nm excitation and 590 nm emission using a plate reader (Perkin Elmer Enspire, Germany). The resazurin assays with J774 cells were performed in analogy to the LtP resazurin assays. Aliquots of a J774 cell suspension in DMEM supplemented with 25,000 U/L penicillin, 25 mg/L streptomycin, and 10% FCS (heat-inactivated), giving a final cell concentration of 10^5 cells/mL, were distributed in the wells of the 96-well microplates. The cells were incubated for 24 h (37 °C, 5% CO2) to allow attachment. Then the medium was discarded and non-adherent cells were removed with 200 µL PBS per well. After the addition of DMEM, the compounds were added, and a serial dilution was performed. Control rows with DMEM (no activity) and with untreated J774 cells (100% activity) were also included. […] Then the addition of resazurin and the measurement of fluorescence were carried out in analogy to the viability assays performed in LtP.
Calculations were carried out using Microsoft Excel (Microsoft). The graphs were created using Origin 6.1 (OriginLab Corporation, Northampton, MA, USA). The half maximal inhibitory concentrations (IC50) were determined from non-linear concentration–response curves using a four-parameter logistic model and expressed as the mean ± standard deviation (SD). Statistically significant differences of p <0.05 were identified using Students t-test.

Where [1] appears, read: resazurin assay, endpoint at 48 h, 10^5 J774/mL.

Read-outs that look alike come from different tables or passages of the source.

On to `O=C1c2ccccc2C(=O)c2ccccc21` [AQ, anthraquinone, reference compound], for which, in the test with LtP, the “DMPO spin adduct formation in LtP (EPR)” value was “neither Ac nor AQ resulted in detectable DMPO spin adducts”. Further, the 50% inhibitory concentration (IC50) with J774 macrophages (setting [1]) came out at 117 ± 24.3 µM.

For the molecule `c1ccc2cc3ccccc3cc2c1` [Ac, anthracene], in the test with LtP, the “DMPO spin adduct formation in LtP (EPR)” value is listed as “neither Ac nor AQ resulted in detectable DMPO spin adducts”. Further, the half-inhibitory concentration (IC50) with J774 macrophages (J774, 48 h) was > 400 µM. `c1ccc2c(c1)C1OOC2c2ccccc21` [AcEP1117, 9,10-dihydro-9,10-epidioxidoanthracene]: the “DMPO spin adduct formation in LtP (EPR)” value in the test with LtP was “no spin adducts were observed”. Moreover, in the test with J774 macrophages (setting [1]), the IC50 turned out to be 43.8 ± 36.1 µM. On the same counts, the results for `CC12OOC(C)(c3ccccc31)c1ccccc12` [AcEP1118, 9,10-dimethyl-9,10-dihydro-9,10-epidioxidoanthracene] are “a moderate intensity DMPO spin adduct was observed” and 4.34 ± 1.91 µM. For `CC12OOC(c3ccccc31)c1ccccc12` [AcEP1129, 9-methyl-9,10-dihydro-9,10-epidioxidoanthracene] the same measures were “high intensity EPR spectra of spin adducts were observed” and 0.9 ± 0.28 µM.

On to `CCc1ccc2c(c1)C1OOC2c2ccccc21` (stereo not shown) [AcEP1130, 2-ethyl-9,10-dihydro-9,10-epidioxidoanthracene], for which, in the test on LtP, the “DMPO spin adduct formation in LtP (EPR)” value is recorded as “no spin adducts were observed”. In addition, the IC50 in the test with J774 macrophages (setting [1]) stood at 7.82 ± 0.47 µM. As to `N=C(N)c1ccc(OCCCCCOc2ccc(C(=N)N)cc2)cc1` [Pen, pentamidine, reference compound], the IC50 in the test on J774 macrophages (setting [1]) was determined as 14.4 ± 6.48 µM.
